Experimental findings from patent publication US20180371044A1, “PEPTIDOMIMETIC MACROCYCLES” (Aileron Therapeutics, Inc., priority 2015, published 2018) are described below.

Where a SMILES comes first, the peptide text is derived from it. Bridges are numbered along the chain shown (N, C = ends). [ ]: non-standard residue; d: D form. The star is where a group is joined. NMeY = CN[C@@H](Cc1ccc(O)cc1)C(=O)O; R8 = C=CCCCCCC[C@@](C)(N)C(=O)O; S5 = C=CCCC[C@](C)(N)C(=O)O; hSer = N[C@@H](CCO)C(=O)O; Nle = CCCC[C@H](N)C(=O)O; Hexanoyl = CCCCCC(=O)*

The assay addresses T1, human GHRH receptor (hGHRHR) (Homo sapiens, UniProt Q02643).
T1 construct: expressed in transfected cells; host or cells: Human 293 cells
T1 sequence (Q02643 23-423): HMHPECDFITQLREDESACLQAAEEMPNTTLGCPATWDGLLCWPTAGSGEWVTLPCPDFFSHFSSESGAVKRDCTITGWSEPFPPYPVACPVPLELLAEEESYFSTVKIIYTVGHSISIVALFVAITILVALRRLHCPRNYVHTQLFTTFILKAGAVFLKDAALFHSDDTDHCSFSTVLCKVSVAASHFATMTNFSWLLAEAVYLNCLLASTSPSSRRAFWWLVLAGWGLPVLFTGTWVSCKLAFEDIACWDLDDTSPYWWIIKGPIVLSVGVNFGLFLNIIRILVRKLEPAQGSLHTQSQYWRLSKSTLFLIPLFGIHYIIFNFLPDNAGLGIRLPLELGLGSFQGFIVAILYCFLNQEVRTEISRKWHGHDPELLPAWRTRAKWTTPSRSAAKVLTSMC
Kind of assay: GHRHR agonism measured by cAMP (HTRF) in human 293 cells expressing hGHRHR.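 Also: receptor expressed transiently or stably, cells stimulated in serum-free medium, EC50 from a non-linear dose-response fit, maximal response defined by reference GHRH stimulation.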 The class given is cell-based. To be noted: 30 min at RT.

As a reminder, the EC50 is the concentration needed to bring the measured effect to its halfway point. Lower therefore signals higher potency in that assay. For the compound `CCCC[C@H](NC(=O)[C@@H](NC(=O)[C@H](CC(=O)O)NC(=O)[C@H](CCC(N)=O)NC(=O)[C@H](CC(C)C)NC(=O)[C@H](C)NC(=O)[C@H](CCCCN)NC(=O)[C@H](CCCNC(=N)N)NC(=O)[C@H](C)NC(=O)[C@H](CO)NC(=O)[C@H](CC(C)C)NC(=O)[C@H](CCC(N)=O)NC(=O)[C@H](C)NC(=O)[C@H](CC(C)C)NC(=O)[C@@H](NC(=O)[C@H](CCCCN)NC(=O)[C@H](CCCNC(=N)N)NC(=O)[C@H](Cc1ccc(O)cc1)NC(=O)[C@H](CO)NC(=O)[C@H](C)NC(=O)[C@@H](NC(=O)[C@H](Cc1ccccc1)NC(=O)[C@@H](NC(=O)[C@H](C)NC(=O)[C@H](CC(=O)O)NC(=O)[C@H](C)NC(=O)[C@H](Cc1ccc(O)cc1)NC)[C@@H](C)CC)[C@@H](C)O)C(C)C)[C@@H](C)CC)C(=O)N[C@@H](CC(=O)O)C(=O)N[C@@H](CCCNC(=N)N)C(N)=O` [SP-45] (H-[NMeY]ADAIFTASYRKVLAQLSARKALQDI[Nle]DR-NH2), the EC50 was not above 1 nM. With `CCCC[C@H](NC(=O)[C@]1(C)CCCC=CCCCCCC[C@@](C)(NC(=O)[C@H](CO)NC(=O)[C@H](CC(C)C)NC(=O)[C@H](CCC(N)=O)NC(=O)[C@H](C)NC(=O)[C@H](CC(C)C)NC(=O)[C@@H](NC(=O)[C@H](CCCCN)NC(=O)[C@H](CCCNC(=N)N)NC(=O)[C@H](Cc2ccc(O)cc2)NC(=O)[C@H](CO)NC(=O)[C@H](C)NC(=O)[C@@H](NC(=O)[C@H](Cc2ccccc2)NC(=O)[C@@H](NC(=O)[C@H](C)NC(=O)[C@H](CC(=O)O)NC(=O)[C@H](C)NC(=O)[C@H](Cc2ccc(O)cc2)NC)[C@@H](C)CC)[C@@H](C)O)C(C)C)C(=O)N[C@@H](CCCNC(=N)N)C(=O)N[C@@H](CCCCN)C(=O)N[C@@H](C)C(=O)N[C@@H](CC(C)C)C(=O)N[C@@H](CCC(N)=O)C(=O)N[C@@H](CC(=O)O)C(=O)N1)C(=O)N[C@@H](CO)C(=O)N[C@@H](CCCNC(=N)N)C(N)=O` [SP-31] (H-[NMeY]ADAIFTASYRKVLAQLS[R8]RKALQD[S5][Nle]SR-NH2; staple 19-26) the figure was 1 to 10 nM; with `CCCC[C@H](NC(=O)[C@@H](NC(=O)[C@H](CC(=O)O)NC(=O)[C@H](CCC(N)=O)NC(=O)[C@H](CC(C)C)NC(=O)[C@H](C)NC(=O)[C@H](CCCCN)NC(=O)[C@H](CCCNC(=N)N)NC(=O)[C@H](C)NC(=O)[C@H](CO)NC(=O)[C@H](CC(C)C)NC(=O)[C@H](CCC(N)=O)NC(=O)[C@H](C)NC(=O)[C@H](CC(C)C)NC(=O)[C@@H](NC(=O)[C@H](CCCCN)NC(=O)[C@H](CCCNC(=N)N)NC(=O)[C@H](Cc1ccc(O)cc1)NC(=O)[C@H](CO)NC(=O)[C@H](C)NC(=O)[C@@H](NC(=O)[C@H](Cc1ccccc1)NC(=O)[C@@H](NC(=O)[C@H](C)NC(=O)[C@H](CC(=O)O)NC(=O)[C@@H](C)NC(=O)[C@@H](N)Cc1ccc(O)cc1)[C@@H](C)CC)[C@@H](C)O)C(C)C)[C@@H](C)CC)C(=O)N[C@@H](CO)C(=O)N[C@@H](CCCNC(=N)N)C(N)=O` [SP-46] (H-Y[dA]DAIFTASYRKVLAQLSARKALQDI[Nle]SR-NH2), not above 1 nM.

Regarding `CC[C@H](C)[C@H](NC(=O)[C@H](C)NC(=O)[C@H](CC(=O)O)NC(=O)[C@H](C)NC(=O)[C@H](Cc1ccc(O)cc1)NC)C(=O)N[C@@H](Cc1ccccc1)C(=O)N[C@H](C(=O)N[C@@H](C)C(=O)N[C@@H](CO)C(=O)N[C@@H](Cc1ccc(O)cc1)C(=O)N[C@@H](CCCNC(=N)N)C(=O)N[C@]1(C)CCCCCCC=CCCC[C@@](C)(C(=O)N[C@@H](CCCNC(=N)N)C(=O)N[C@@H](CCCCN)C(=O)N[C@@H](C)C(=O)N[C@@H](CC(C)C)C(=O)N[C@@H](CCC(N)=O)C(=O)N[C@@H](CC(=O)O)C(=O)N[C@H](C(=O)N[C@@H](CCOC)C(=O)N[C@@H](CO)C(=O)N[C@@H](CCCNC(=N)N)C(N)=O)[C@@H](C)CC)NC(=O)[C@H](CO)NC(=O)[C@H](CC(C)C)NC(=O)[C@H](CCC(N)=O)NC(=O)[C@H](C)NC(=O)[C@H](CC(C)C)NC(=O)[C@H](C(C)C)NC1=O)[C@@H](C)O` [SP-68] (H-[NMeY]ADAIFTASYR[R8]VLAQLS[S5]RKALQDI[hSer](Me)SR-NH2; staple 12-19), the EC50 lay in the range of 10 to 25 nM. As for `CCCCCC(=O)N[C@@H](Cc1ccc(O)cc1)C(=O)N[C@@H](C)C(=O)N[C@@H](CC(=O)O)C(=O)N[C@@H](C)C(=O)N[C@H](C(=O)N[C@@H](Cc1ccccc1)C(=O)N[C@H](C(=O)N[C@@H](C)C(=O)N[C@@H](CO)C(=O)N[C@@H](Cc1ccc(O)cc1)C(=O)N[C@@H](CCCNC(=N)N)C(=O)N[C@@H](CCCCN)C(=O)N[C@H](C(=O)N[C@@H](CC(C)C)C(=O)N[C@@H](C)C(=O)N[C@@H](CCC(N)=O)C(=O)N[C@@H](CC(C)C)C(=O)N[C@@H](CO)C(=O)N[C@@H](C)C(=O)N[C@@H](CCCNC(=N)N)C(=O)N[C@@H](CCCCN)C(=O)N[C@@H](C)C(=O)N[C@@H](CC(C)C)C(=O)N[C@@H](CCC(N)=O)C(=O)N[C@@H](CC(=O)O)C(=O)N[C@H](C(=O)N[C@@H](CCCC)C(=O)N[C@@H](CO)C(=O)N[C@@H](CCCNC(=N)N)C(N)=O)[C@@H](C)CC)C(C)C)[C@@H](C)O)[C@@H](C)CC` [SP-39] (Hexanoyl-YADAIFTASYRKVLAQLSARKALQDI[Nle]SR-NH2), the EC50 is 1 to 10 nM. Take `CCCC[C@H](NC(=O)[C@@H](NC(=O)[C@H](CC(=O)O)NC(=O)[C@H](CCC(N)=O)NC(=O)[C@H](CC(C)C)NC(=O)[C@H](C)NC(=O)[C@H](CCCCN)NC(=O)[C@H](CCCNC(=N)N)NC(=O)[C@]1(C)CCCC=CCCCCCC[C@@](C)(NC(=O)[C@H](CCCNC(=N)N)NC(=O)[C@H](Cc2ccc(O)cc2)NC(=O)[C@H](CO)NC(=O)[C@H](C)NC(=O)[C@@H](NC(=O)[C@H](Cc2ccccc2)NC(=O)[C@@H](NC(=O)[C@H](C)NC(=O)[C@H](CC(=O)O)NC(=O)[C@H](C)NC(=O)[C@H](Cc2ccc(O)cc2)NC)[C@@H](C)CC)[C@@H](C)O)C(=O)N[C@@H](C(C)C)C(=O)N[C@@H](CC(C)C)C(=O)N[C@@H](C)C(=O)N[C@@H](CCC(N)=O)C(=O)N[C@@H](CC(C)C)C(=O)N[C@@H](CO)C(=O)N1)[C@@H](C)CC)C(=O)N[C@@H](CO)C(=O)N[C@@H](CCCNC(=N)N)C(=O)N[C@@H](CCC(=O)O)C(=O)N[C@@H](CCC(=O)O)C(=O)N[C@@H](CCC(=O)O)C(N)=O` [SP-59] (H-[NMeY]ADAIFTASYR[R8]VLAQLS[S5]RKALQDI[Nle]SREEE-NH2; staple 12-19): the EC50 was in the range of 25 to 50 nM. For the compound `CCCC[C@H](NC(=O)[C@@H](NC(=O)[C@H](CC(=O)O)NC(=O)[C@H](CCC(N)=O)NC(=O)[C@H](CC(C)C)NC(=O)[C@H](C)NC(=O)[C@H](CCCCN)NC(=O)[C@H](CCCNC(=N)N)NC(=O)[C@H](C)NC(=O)[C@H](CO)NC(=O)[C@H](CC(C)C)NC(=O)[C@H](CCC(N)=O)NC(=O)[C@H](C)NC(=O)[C@H](CC(C)C)NC(=O)[C@@H](NC(=O)[C@H](CCCCN)NC(=O)[C@H](CCCNC(=N)N)NC(=O)[C@H](Cc1ccc(O)cc1)NC(=O)[C@H](CO)NC(=O)[C@H](CCC(N)=O)NC(=O)[C@@H](NC(=O)[C@H](Cc1ccccc1)NC(=O)[C@@H](NC(=O)[C@H](C)NC(=O)[C@H](CC(=O)O)NC(=O)[C@H](C)NC(=O)[C@H](Cc1ccc(O)cc1)NC)[C@@H](C)CC)[C@@H](C)O)C(C)C)[C@@H](C)CC)C(=O)N[C@@H](CO)C(=O)N[C@@H](CCCNC(=N)N)C(N)=O` [SP-43] (H-[NMeY]ADAIFTQSYRKVLAQLSARKALQDI[Nle]SR-NH2), the EC50 was not above 1 nM.
